Measurements reported in ChEMBL document CHEMBL6134890, “Terminally Symmetric β-Turn Peptides for Multidrug-Resistant Bacterial Infections” (J Med Chem, 2025).
Values after ≈ are worked out from the molar mass of the structure shown. Bridge positions count the residues as written; N and C are the ends. Square brackets hold non-standard residues; d marks the D form. Peptide text beside a SMILES is read from it. * marks the point of attachment. X1 = CC[C@H](C)CCCCC(=O)*; Dab = NCC[C@H](N)C(=O)O

Experiments:
Staphylococcus aureus [1] = experiment: Antimicrobial activity against Staphylococcus aureus ATCC 25923 assessed as reduction in bacterial growth by broth dilution method; type: functional
Staphylococcus aureus [2] = experiment: Antimicrobial activity against multi-drug resistant Staphylococcus aureus assessed as reduction in bacterial growth by broth dilution method; type: functional
[3] = tested on: Staphylococcus epidermidis; experiment: Antimicrobial activity against multi-drug resistant Staphylococcus epidermidis assessed as reduction in bacterial growth by broth dilution method; type: functional
Enterococcus faecalis = experiment: Antimicrobial activity against multi-drug resistant Enterococcus faecalis assessed as reduction in bacterial growth by broth dilution method; type: functional
Escherichia coli [4] = experiment: Antimicrobial activity against Escherichia coli ATCC 25922 assessed as reduction in bacterial growth by broth dilution method; type: functional
Escherichia coli [5] = experiment: Antimicrobial activity against multi-drug resistant Escherichia coli assessed as reduction in bacterial growth by broth dilution method; type: functional
Klebsiella pneumoniae = experiment: Antimicrobial activity against multi-drug resistant Klebsiella pneumoniae assessed as reduction in bacterial growth by broth dilution method; type: functional
Acinetobacter baumannii = experiment: Antimicrobial activity against multi-drug resistant Acinetobacter baumannii assessed as reduction in bacterial growth by broth dilution method; type: functional
[6] = Hemolytic activity in human Red blood cell assessed as hemolysis incubated for 1 hrs by microplate reader based analysis; type: toxicity; details: erythrocyte
BEAS-2B = experiment: Cytotoxicity against human BEAS-2B cells at 2 to 256 uM measured after 24 hrs by CCK-8 method; type: toxicity, cell-based; details: dose 2-256 µM
HEK-293T = experiment: Cytotoxicity against HEK293T cells at 2 to 256 uM measured after 24 hrs by CCK-8 method; type: toxicity, cell-based; details: human, dose 2-256 µM
L02 = experiment: Cytotoxicity against human LO2 cells at 2 to 256 uM measured after 24 hrs by CCK-8 method; type: toxicity, cell-based; details: l02, 24 h, dose 2-256 µM

Compound	MIC (Staphylococcus aureus [1]) [µM]	MIC (Staphylococcus aureus [2]) [µM]	MIC [3] [µM]	MIC (Enterococcus faecalis) [µM]	MIC (Escherichia coli [4]) [µM]	MIC (Escherichia coli [5]) [µM]	MIC (Klebsiella pneumoniae) [µM]	MIC (Acinetobacter baumannii) [µM]	HC10 [6] [µM]	Activity (BEAS-2B)	Activity (HEK-293T)	Activity (L02)
CC(C)C[C@H](NC(=O)[C@H](CCCCN)NC(=O)[C@H](CC(C)C)NC(=O)[C@H](CCCCN)NC(=O)[C@H](Cc1ccccc1)NC(=O)[C@@H]1CCCN1C(=O)[C@H](Cc1c[nH]c2ccccc12)NC(=O)[C@H](Cc1c[nH]c2ccccc12)NC(=O)[C@H](Cc1c[nH]c2ccccc12)NC(=O)[C@@H]1CCCN1C(=O)[C@H](Cc1ccccc1)NC(=O)[C@H](CCCCN)NC(=O)[C@H](CC(C)C)NC(=O)[C@H](CCCCN)NC(=O)[C@H](CC(C)C)NC(=O)[C@@H](N)CCCCN)C(=O)N[C@@H](CCCCN)C(N)=O (H-KLKLKFPWWWPFKLKLK-NH2)	8 (≈ 18.3 µg/mL)	4 (≈ 9.14 µg/mL)	4 (≈ 9.14 µg/mL)	8 (≈ 18.3 µg/mL)	8 (≈ 18.3 µg/mL)	8 (≈ 18.3 µg/mL)	8 (≈ 18.3 µg/mL)	8 (≈ 18.3 µg/mL)	38.84			
CC(C)[C@H](NC(=O)[C@H](CCCCN)NC(=O)[C@@H](NC(=O)[C@H](CCCCN)NC(=O)[C@@H]1CCCN1C(=O)[C@H](Cc1c[nH]c2ccccc12)NC(=O)[C@H](Cc1c[nH]c2ccccc12)NC(=O)[C@H](Cc1c[nH]c2ccccc12)NC(=O)[C@@H]1CCCN1C(=O)[C@H](CCCCN)NC(=O)[C@@H](NC(=O)[C@H](CCCCN)NC(=O)[C@@H](NC(=O)[C@@H](N)CCCCN)C(C)C)C(C)C)C(C)C)C(=O)N[C@@H](CCCCN)C(N)=O (H-KVKVKPWWWPKVKVK-NH2)	64 (≈ 124 µg/mL)	64 (≈ 124 µg/mL)	32 (≈ 61.9 µg/mL)	32 (≈ 61.9 µg/mL)	32 (≈ 61.9 µg/mL)	32 (≈ 61.9 µg/mL)	32 (≈ 61.9 µg/mL)	64 (≈ 124 µg/mL)	> 256			
NCCCC[C@H](NC(=O)[C@H](Cc1c[nH]c2ccccc12)NC(=O)[C@H](CCCCN)NC(=O)[C@H](Cc1c[nH]c2ccccc12)NC(=O)[C@H](Cc1ccccc1)NC(=O)[C@@H]1CCCN1C(=O)[C@H](Cc1c[nH]c2ccccc12)NC(=O)[C@H](Cc1c[nH]c2ccccc12)NC(=O)[C@H](Cc1c[nH]c2ccccc12)NC(=O)[C@@H]1CCCN1C(=O)[C@H](Cc1ccccc1)NC(=O)[C@H](Cc1c[nH]c2ccccc12)NC(=O)[C@H](CCCCN)NC(=O)[C@H](Cc1c[nH]c2ccccc12)NC(=O)[C@@H](N)CCCCN)C(N)=O (H-KWKWFPWWWPFWKWK-NH2)	4 (≈ 9.29 µg/mL)	4 (≈ 9.29 µg/mL)	16 (≈ 37.1 µg/mL)	16 (≈ 37.1 µg/mL)	32 (≈ 74.3 µg/mL)	64 (≈ 149 µg/mL)	256 (≈ 594 µg/mL)	64 (≈ 149 µg/mL)	7.46			
NCCCC[C@H](NC(=O)[C@H](Cc1c[nH]c2ccccc12)NC(=O)[C@H](CCCCN)NC(=O)[C@H](Cc1c[nH]c2ccccc12)NC(=O)[C@H](CCCCN)NC(=O)[C@H](Cc1ccccc1)NC(=O)[C@@H]1CCCN1C(=O)[C@H](Cc1c[nH]c2ccccc12)NC(=O)[C@H](Cc1c[nH]c2ccccc12)NC(=O)[C@H](Cc1c[nH]c2ccccc12)NC(=O)[C@@H]1CCCN1C(=O)[C@H](Cc1ccccc1)NC(=O)[C@H](CCCCN)NC(=O)[C@H](Cc1c[nH]c2ccccc12)NC(=O)[C@H](CCCCN)NC(=O)[C@H](Cc1c[nH]c2ccccc12)NC(=O)[C@@H](N)CCCCN)C(N)=O (H-KWKWKFPWWWPFKWKWK-NH2)	4 (≈ 10.3 µg/mL)	8 (≈ 20.6 µg/mL)	8 (≈ 20.6 µg/mL)	8 (≈ 20.6 µg/mL)	8 (≈ 20.6 µg/mL)	4 (≈ 10.3 µg/mL)	8 (≈ 20.6 µg/mL)	8 (≈ 20.6 µg/mL)	2.1			
NCCCC[C@H](NC(=O)[C@H](Cc1c[nH]c2ccccc12)NC(=O)[C@H](CCCCN)NC(=O)[C@H](Cc1c[nH]c2ccccc12)NC(=O)[C@H](CCCCN)NC(=O)[C@@H]1CCCN1C(=O)[C@H](Cc1c[nH]c2ccccc12)NC(=O)[C@H](Cc1c[nH]c2ccccc12)NC(=O)[C@H](Cc1c[nH]c2ccccc12)NC(=O)[C@@H]1CCCN1C(=O)[C@H](CCCCN)NC(=O)[C@H](Cc1c[nH]c2ccccc12)NC(=O)[C@H](CCCCN)NC(=O)[C@H](Cc1c[nH]c2ccccc12)NC(=O)[C@@H](N)CCCCN)C(N)=O (H-KWKWKPWWWPKWKWK-NH2)	4 (≈ 9.14 µg/mL)	4 (≈ 9.14 µg/mL)	4 (≈ 9.14 µg/mL)	4 (≈ 9.14 µg/mL)	4 (≈ 9.14 µg/mL)	4 (≈ 9.14 µg/mL)	4 (≈ 9.14 µg/mL)	4 (≈ 9.14 µg/mL)	64.03			
NCCCC[C@H](NC(=O)[C@H](Cc1c[nH]c2ccccc12)NC(=O)[C@H](CCCCN)NC(=O)[C@H](Cc1c[nH]c2ccccc12)NC(=O)[C@@H]1CCCN1C(=O)[C@H](Cc1c[nH]c2ccccc12)NC(=O)[C@H](Cc1c[nH]c2ccccc12)NC(=O)[C@H](Cc1c[nH]c2ccccc12)NC(=O)[C@@H]1CCCN1C(=O)[C@H](Cc1c[nH]c2ccccc12)NC(=O)[C@H](CCCCN)NC(=O)[C@H](Cc1c[nH]c2ccccc12)NC(=O)[C@@H](N)CCCCN)C(N)=O (H-KWKWPWWWPWKWK-NH2)	2 (≈ 4.05 µg/mL)	2 (≈ 4.05 µg/mL)	2 (≈ 4.05 µg/mL)	2 (≈ 4.05 µg/mL)	8 (≈ 16.2 µg/mL)	4 (≈ 8.11 µg/mL)	16 (≈ 32.4 µg/mL)	4 (≈ 8.11 µg/mL)	10.37			
NCCCC[C@H](NC(=O)[C@H](Cc1c[nH]c2ccccc12)NC(=O)[C@H](CCCCN)NC(=O)[C@H](Cc1ccccc1)NC(=O)[C@@H]1CCCN1C(=O)[C@H](Cc1c[nH]c2ccccc12)NC(=O)[C@H](Cc1c[nH]c2ccccc12)NC(=O)[C@H](Cc1c[nH]c2ccccc12)NC(=O)[C@@H]1CCCN1C(=O)[C@H](Cc1ccccc1)NC(=O)[C@H](CCCCN)NC(=O)[C@H](Cc1c[nH]c2ccccc12)NC(=O)[C@H](CCCCN)NC(=O)[C@@H](N)Cc1c[nH]c2ccccc12)C(=O)N[C@@H](Cc1c[nH]c2ccccc12)C(N)=O (H-WKWKFPWWWPFKWKW-NH2)	8 (≈ 18.6 µg/mL)	16 (≈ 37.1 µg/mL)	16 (≈ 37.1 µg/mL)	16 (≈ 37.1 µg/mL)	128 (≈ 297 µg/mL)	128 (≈ 297 µg/mL)	256 (≈ 594 µg/mL)	16 (≈ 37.1 µg/mL)	6.82			
NCCCC[C@H](NC(=O)[C@H](Cc1c[nH]c2ccccc12)NC(=O)[C@H](CCCCN)NC(=O)[C@@H]1CCCN1C(=O)[C@H](Cc1c[nH]c2ccccc12)NC(=O)[C@H](Cc1c[nH]c2ccccc12)NC(=O)[C@H](Cc1c[nH]c2ccccc12)NC(=O)[C@@H]1CCCN1C(=O)[C@H](CCCCN)NC(=O)[C@H](Cc1c[nH]c2ccccc12)NC(=O)[C@H](CCCCN)NC(=O)[C@@H](N)Cc1c[nH]c2ccccc12)C(=O)N[C@@H](Cc1c[nH]c2ccccc12)C(N)=O (H-WKWKPWWWPKWKW-NH2)	4 (≈ 8.11 µg/mL)	4 (≈ 8.11 µg/mL)	2 (≈ 4.05 µg/mL)	2 (≈ 4.05 µg/mL)	8 (≈ 16.2 µg/mL)	8 (≈ 16.2 µg/mL)	8 (≈ 16.2 µg/mL)	8 (≈ 16.2 µg/mL)	28.58			
CC(C)CCCCC(=O)N[C@@H](CCN)C(=O)N[C@H](C(=O)N[C@@H](CCN)C(=O)N[C@H]1CCNC(=O)[C@H]([C@@H](C)O)NC(=O)[C@H](CCN)NC(=O)[C@H](CCN)NC(=O)[C@H](CC(C)C)NC(=O)[C@@H](Cc2ccccc2)NC(=O)[C@H](CCN)NC1=O)[C@@H](C)O.CC[C@H](C)CCCCC(=O)N[C@@H](CCN)C(=O)N[C@H](C(=O)N[C@@H](CCN)C(=O)N[C@H]1CCNC(=O)[C@H]([C@@H](C)O)NC(=O)[C@H](CCN)NC(=O)[C@H](CCN)NC(=O)[C@H](CC(C)C)NC(=O)[C@@H](Cc2ccccc2)NC(=O)[C@H](CCN)NC1=O)[C@@H](C)O (X1-[Dab]T[Dab][Dab][Dab][dF]L[Dab][Dab]T; lactam 4-C)									> 256	Non-toxic	Non-toxic	Non-toxic
